In ChEMBL document CHEMBL1201862, “PubChem BioAssay data set” (2004):
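Tested at 5 concentrations; 48 h exposure; 96-well plates; endpoints linearly interpolated, else capped at highest concentration. GI50 = concentration required for 50% inhibition of growth.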 Active and inactive are the calls of the source. No stated cut-off is given here; in the data, active = GI50 up to about 1.1 µM and inactive = higher.

Experiments:
Assay in all cases: NCI-60 cell line screen, 48 h
RXF 393 = tested on: RXF 393
KM12 = tested on: KM12
HCT-15 = tested on: HCT-15
BT-549 = tested on: BT-549
SR = tested on: SR
MDA-MB-231 = tested on: MDA-MB-231
NCI-H460 = tested on: NCI-H460
SW-620 = tested on: SW-620
HT-29 = tested on: HT-29
NCI-H522 = tested on: NCI-H522
Malme-3M = tested on: Malme-3M
ACHN = tested on: ACHN
HL-60 = tested on: HL-60
NCI/ADR-RES = tested on: NCI/ADR-RES
EKVX = tested on: EKVX
SF-295 = tested on: SF-295
TK-10 = tested on: TK-10
SK-OV-3 = tested on: SK-OV-3
SF-268 = tested on: SF-268
RPMI-8226 = tested on: RPMI-8226

Structure (SMILES) | GI50 (RXF 393) | GI50 (KM12) | GI50 (HCT-15) [µM] | GI50 (BT-549) | GI50 (SR) | GI50 (MDA-MB-231) | GI50 (NCI-H460) | GI50 (SW-620) | GI50 (HT-29) | GI50 (NCI-H522) | GI50 (Malme-3M) | GI50 (ACHN) | GI50 (HL-60) | GI50 (NCI/ADR-RES) | GI50 (EKVX) | GI50 (SF-295) | GI50 (TK-10) | GI50 (SK-OV-3) | GI50 (SF-268) | GI50 (RPMI-8226)
Cc1ccc(NC(=O)C23CC4CC(CC(C4)C2)C3)c(C(=O)NNC(=O)c2ccc(Cl)cc2)c1 | 15 µM (inactive) | 21.3 µM (inactive) | 17 | 35.9 µM (inactive) | 13.7 µM (inactive) | 15.5 µM (inactive) | 22 µM (inactive) | 26.2 µM (inactive) | 23.7 µM (inactive) | 12 µM (inactive) | 18.3 µM (inactive) | 17.5 µM (inactive) | 28.3 µM (inactive) | 21.2 µM (inactive) | 18.5 µM (inactive) | 22.9 µM (inactive) | 17.7 µM (inactive) | 15.8 µM (inactive) | 23.8 µM (inactive) | 19 µM (inactive)
CCN(CC)CCOCCOCC1(c2ccc(Cl)c(Cl)c2)CCCCC1 | 4.26 µM (inactive) | 5.06 µM (inactive) | 4.34 | 12.7 µM (inactive) | 11 µM (inactive) | 10.8 µM (inactive) | 3.39 µM (inactive) | 5.61 µM (inactive) | 2.29 µM (inactive) | 7.91 µM (inactive) | 5.33 µM (inactive) | 15.2 µM (inactive) | 5.82 µM (inactive) | 11.4 µM (inactive) | 8.17 µM (inactive) | 5.83 µM (inactive) | 9.38 µM (inactive) | 11.6 µM (inactive) | 11.8 µM (inactive) | 2.51 µM (inactive)
Cc1nc(Nc2ccc(Cl)c(Cl)c2)sc1C(/C=C/c1ccc2c(c1)OCO2)=N/Nc1ccc([N+](=O)[O-])cc1[N+](=O)[O-] | 27.2 µM (inactive) | > 88.7 µM (inactive) | > 97.1 | > 100 µM (inactive) | > 91.4 µM (inactive) | > 100 µM (inactive) | > 100 µM (inactive) | > 100 µM (inactive) | > 100 µM (inactive) | 61 µM (inactive) | > 100 µM (inactive) | > 92 µM (inactive) | > 79.6 µM (inactive) | > 100 µM (inactive) | > 100 µM (inactive) | 53.3 µM (inactive) | 66.5 µM (inactive) | > 91.8 µM (inactive) | > 100 µM (inactive) | > 82.2 µM (inactive)
O=C(O)[C@@H]1CSCN1C(=O)[C@@H]1CCC(=S)N1 | > 100 µM (inactive) | > 100 µM (inactive) | > 100 | > 100 µM (inactive) | > 100 µM (inactive) | > 100 µM (inactive) | > 100 µM (inactive) | > 100 µM (inactive) | > 100 µM (inactive) | > 100 µM (inactive) | > 100 µM (inactive) | > 100 µM (inactive) | > 100 µM (inactive) | > 100 µM (inactive) |  | > 100 µM (inactive) | > 100 µM (inactive) | > 100 µM (inactive) | > 100 µM (inactive) | > 100 µM (inactive)
Cc1cc(S(=O)(=O)Nc2nnc3c(C(F)(F)F)cc(Cl)cn23)c(S)cc1Cl | > 100 µM (inactive) | 94.8 µM (inactive) | > 100 | > 100 µM (inactive) | 81.7 µM (inactive) | > 100 µM (inactive) | 45.3 µM (inactive) | > 100 µM (inactive) | > 100 µM (inactive) | > 100 µM (inactive) | > 100 µM (inactive) | 48.2 µM (inactive) | > 100 µM (inactive) | > 100 µM (inactive) | > 100 µM (inactive) |  | > 100 µM (inactive) | > 100 µM (inactive) | > 100 µM (inactive) | > 100 µM (inactive)
NC(CSS(=O)(=O)c1ccccc1)C(=O)O (stereo not given) | > 10 µM (inactive) | > 10 µM (inactive) | > 10 | > 10 µM (inactive) | > 10 µM (inactive) | > 10 µM (inactive) | > 10 µM (inactive) | > 10 µM (inactive) | > 10 µM (inactive) | > 10 µM (inactive) | > 10 µM (inactive) | > 10 µM (inactive) | > 10 µM (inactive) | > 10 µM (inactive) | > 10 µM (inactive) | > 10 µM (inactive) | > 10 µM (inactive) | > 10 µM (inactive) | > 10 µM (inactive) | > 10 µM (inactive)
COc1cc2c(cc1OC)C13CCN4C=C5CCOC6CC(=O)N2C1C6C5CC43 (stereo not given) | > 100 µM (inactive) | > 100 µM (inactive) | > 100 | > 100 µM (inactive) | > 100 µM (inactive) | > 100 µM (inactive) | > 100 µM (inactive) | > 100 µM (inactive) | > 100 µM (inactive) | > 100 µM (inactive) | > 100 µM (inactive) | > 100 µM (inactive) | > 100 µM (inactive) | > 100 µM (inactive) | > 100 µM (inactive) | > 100 µM (inactive) | > 100 µM (inactive) | > 100 µM (inactive) | > 100 µM (inactive) | > 100 µM (inactive)
CCOC(=O)c1sc2nc(SC)nc3c2c1NCN3c1ccc2c(c1)OCCCO2 | 11.7 µM (inactive) | 4.18 µM (inactive) | > 100 | 51.2 µM (inactive) | > 100 µM (inactive) | 24.3 µM (inactive) | 25.7 µM (inactive) | 8.71 µM (inactive) |  | > 100 µM (inactive) | > 100 µM (inactive) | 32.1 µM (inactive) | > 100 µM (inactive) | 22.1 µM (inactive) | > 100 µM (inactive) | 1.67 µM (inactive) | 53.6 µM (inactive) | 15.7 µM (inactive) | 13.3 µM (inactive) | > 100 µM (inactive)
O=S(=O)(O)c1c(Cl)c(Cl)c(O)c2ncccc12 | 19.3 µM (inactive) | 10.8 µM (inactive) | 5.33 | 20.2 µM (inactive) | 6.3 µM (inactive) | 27.7 µM (inactive) | 7.36 µM (inactive) | 10 µM (inactive) | 9.89 µM (inactive) | 4.12 µM (inactive) | 10.4 µM (inactive) | 7.33 µM (inactive) | 1.87 µM (inactive) | 5.05 µM (inactive) | 12.2 µM (inactive) | 7.06 µM (inactive) | 12.5 µM (inactive) | 13 µM (inactive) | 3.79 µM (inactive) | 10.6 µM (inactive)
CC12OC1(C)C1C(=O)OCC1C2=O (stereo not given) | 31.8 µM (inactive) | 44.7 µM (inactive) | 55 | > 100 µM (inactive) | 21 µM (inactive) | > 100 µM (inactive) | > 100 µM (inactive) | 45.9 µM (inactive) | 49.7 µM (inactive) | 14.7 µM (inactive) | 17.6 µM (inactive) | 62.1 µM (inactive) | 20.6 µM (inactive) | 51.3 µM (inactive) |  | 83.8 µM (inactive) | > 100 µM (inactive) | > 100 µM (inactive) | 37.8 µM (inactive) | > 100 µM (inactive)
C(/C=N/N=C1NCCN1)=N\N=C1NCCN1 | > 100 µM (inactive) | > 100 µM (inactive) | > 100 | > 100 µM (inactive) | > 100 µM (inactive) | > 100 µM (inactive) | > 100 µM (inactive) | > 100 µM (inactive) | > 100 µM (inactive) | 72.3 µM (inactive) | > 100 µM (inactive) | > 100 µM (inactive) | 12.5 µM (inactive) | > 100 µM (inactive) | > 100 µM (inactive) | > 100 µM (inactive) |  | > 100 µM (inactive) | > 100 µM (inactive) | > 100 µM (inactive)
COc1ccc2c(c1)c1ccc3c(c1n2C)C(=O)C=CC3=O | 5.35 µM (inactive) | 18 µM (inactive) | 4.72 | 3.77 µM (inactive) | 0.813 µM (active) | 5.18 µM (inactive) | 26.9 µM (inactive) | 4.1 µM (inactive) | 14 µM (inactive) | 3.15 µM (inactive) | 7.76 µM (inactive) | 6.24 µM (inactive) | 0.904 µM (active) | 5.79 µM (inactive) | 14.1 µM (inactive) | 24.3 µM (inactive) | 7.76 µM (inactive) | 29.2 µM (inactive) | 15 µM (inactive) | 2.17 µM (inactive)
